Legend:
[1] = target: hyaluronidase of bovine origin (Bos taurus, UniProt Q2YDK3); experiment: Inhibitory effect on hyaluronidase activity of bovine origin (turbidimetry of nonhydrolysed hyaluronic acid); format: biochemical; details: various concentrations, FIG. 1
Description: Determination of the IC50 of GLZ, with or without Preincubation at 37° C.: GLZ, at various concentrations, is or is not preincubated for 20 minutes at 37° C. in the presence of the enzyme. The enzyme reaction is triggered by adding the hyaluronic acid solution (time T0). After incubation for 20 minutes, the nonhydrolysed hyaluronic acid is precipitated by adding acidic bovine albumin solution. In order to verify that the preincubation step has no effect on the stability of the hyaluronidase, an aliquot of a solution of the enzyme is placed at 37° C. for 20 minutes. Another aliquot is conserved in an ice bath for 19 minutes, and is then incubated at 37° C. for 1 minute. A solution of hyaluronic acid is then added to each aliquot (T0). After incubation for 15, 30 or 45 minutes, the nonhydrolysed hyaluronic acid is precipitated by addition of acidic bovine albumin solution. After the precipitation step, the turbidimetry of the solutions is determined on a spectrophotometer at a wavelength of 600 nm. The optical density (OD) of these solutions is subtracted from the OD of a control solution of hyaluronic acid (of the same concentration) not hydrolysed by the enzyme. This difference in OD, which is inversely proportional to the concentration of hyaluronic acid, is used to measure the activity of the hyaluronidase.

[2] = humans; cited from earlier work

Sequence of hyaluronidase of bovine origin (Q2YDK3 entry or part of it): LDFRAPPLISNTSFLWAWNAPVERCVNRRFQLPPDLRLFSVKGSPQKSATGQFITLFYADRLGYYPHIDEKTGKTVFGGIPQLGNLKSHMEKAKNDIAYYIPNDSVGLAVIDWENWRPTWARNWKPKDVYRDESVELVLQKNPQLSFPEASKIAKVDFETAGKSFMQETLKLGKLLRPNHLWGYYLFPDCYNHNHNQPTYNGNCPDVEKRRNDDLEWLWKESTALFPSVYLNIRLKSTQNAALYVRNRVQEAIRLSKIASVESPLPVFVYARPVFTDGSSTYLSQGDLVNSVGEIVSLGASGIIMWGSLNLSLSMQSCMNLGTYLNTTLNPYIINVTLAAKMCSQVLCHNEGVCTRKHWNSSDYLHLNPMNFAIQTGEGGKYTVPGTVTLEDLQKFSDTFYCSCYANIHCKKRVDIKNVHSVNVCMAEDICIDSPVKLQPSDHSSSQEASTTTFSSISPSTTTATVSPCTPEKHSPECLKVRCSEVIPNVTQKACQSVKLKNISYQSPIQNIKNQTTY

Row | inhibitory effect on the bovine hyaluronidase [1] | Molecule | excretion in the urine [2]
1 | dose-dependent | CC1(C)[C@@H](O[C@H]2O[C@H](C(=O)O)[C@@H](O)[C@H](O)[C@H]2O[C@@H]2O[C@H](C(=O)O)[C@@H](O)[C@H](O)[C@H]2O)CC[C@]2(C)[C@H]3C(=O)C=C4[C@@H]5C[C@@](C)(C(=O)O)CC[C@]5(C)CC[C@@]4(C)[C@]3(C)CC[C@@H]12 [GLZ, Glycyrrhizin] | 
2 |  | hyaluronic acid | less than 1 % of total clearance

— US20100298249A1, “PHARMACEUTICAL OR COSMETIC PREPARATIONS FOR TOPICAL AND/OR PARENTERAL APPLICATION, PREPARATION METHODS THEREOF AND USE OF SAME” (priority 2007, published 2010)
